Source: US7410975B2, “Small molecule toll-like receptor (TLR) antagonists” (Coley Pharmaceutical Group, Inc., priority 2003, dated 2008)
Structures can show the parent of a compound that is named as a salt.

These compounds were tested against T1, human TLR7 (hTLR7) (Homo sapiens, UniProt Q9NYK1) (assay: Antagonist screen, hTLR7-NFκB-293 cells, NF-κB-luciferase reporter, with EC50 of R848). Conditions: compound at 0.5, 5, 50 μg/ml; EC50 concentration of R848; 16 h; NF-κB-luciferase.
T1 construct: expressed in transfected cells
T1 sequence (Q9NYK1 27-1049): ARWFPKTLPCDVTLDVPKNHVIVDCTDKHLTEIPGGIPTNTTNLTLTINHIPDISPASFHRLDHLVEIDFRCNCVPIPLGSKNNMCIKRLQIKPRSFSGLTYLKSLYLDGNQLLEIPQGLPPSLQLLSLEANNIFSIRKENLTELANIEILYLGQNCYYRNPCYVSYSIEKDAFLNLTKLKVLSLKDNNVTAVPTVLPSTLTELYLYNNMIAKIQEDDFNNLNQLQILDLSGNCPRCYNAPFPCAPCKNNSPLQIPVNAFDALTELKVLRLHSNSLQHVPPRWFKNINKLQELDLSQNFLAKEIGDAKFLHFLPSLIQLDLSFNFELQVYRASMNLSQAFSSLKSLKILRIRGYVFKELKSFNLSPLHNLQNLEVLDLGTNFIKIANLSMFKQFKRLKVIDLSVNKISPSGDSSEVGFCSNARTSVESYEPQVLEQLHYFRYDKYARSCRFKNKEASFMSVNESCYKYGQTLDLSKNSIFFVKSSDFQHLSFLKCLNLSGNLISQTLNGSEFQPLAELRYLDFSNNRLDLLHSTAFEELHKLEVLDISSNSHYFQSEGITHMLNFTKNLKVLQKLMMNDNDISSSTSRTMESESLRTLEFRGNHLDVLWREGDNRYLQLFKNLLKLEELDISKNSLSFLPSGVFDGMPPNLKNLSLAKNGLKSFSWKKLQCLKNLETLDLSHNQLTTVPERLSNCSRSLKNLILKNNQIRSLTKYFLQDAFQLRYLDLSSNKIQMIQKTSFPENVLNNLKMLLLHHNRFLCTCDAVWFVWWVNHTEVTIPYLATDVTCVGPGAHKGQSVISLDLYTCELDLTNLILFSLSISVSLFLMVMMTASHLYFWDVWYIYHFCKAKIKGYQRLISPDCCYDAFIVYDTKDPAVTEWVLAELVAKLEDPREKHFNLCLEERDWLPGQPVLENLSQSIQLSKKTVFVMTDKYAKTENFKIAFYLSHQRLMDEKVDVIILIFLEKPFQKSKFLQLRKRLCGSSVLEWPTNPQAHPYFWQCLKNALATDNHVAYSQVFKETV
Format: cell-based
Procedure: The method is described in greater detail as follows. The cells for each individual cell clone (hTLR3-NFκB-293, hTLR7-NFκB-293, hTLR8-NFκB-293 and hTLR9-NFκB-293) were counted and seeded one day before the stimulation at 1.5×10^4 cells per well in 96-well cell culture plates. To become adherent the cells were incubated after seeding overnight at 37° C. in 5% CO2 humidified air.
The screen for each compound was performed at the same time for all of the receptors TLR3, TLR7, TLR8 and TLR9. Up to fifteen test compounds, each assayed in duplicate at each of three different final concentrations (0.5 μg/ml, 5 μg/ml, and 50 μg/ml), were used for 16 h cell stimulation on a single multiwell culture plate. A 4× final concentration master plate was created to prepare the different test compounds before they were added to the cells.
Controls were added as duplicates individually for each cell clone on the cell culture plate. Positive controls were used as follows (final concentrations): 50 μg/ml poly(I:C) for hTLR3-NFκB-293; 8 μM resiquimod (R848) for hTLR7-NFκB-293; 30 μM R848 for hTLR8-NFκB-293; and 2.5 μM CpG-ODN 2006 for hTLR9-NFκB-293. Media alone was used as negative control. After addition of controls and small molecules, the cell clones were additionally stimulated with the EC50 concentration of the appropriate receptor-specific ligand.
The mean value of wells H2 and H5 (each with cells and EC50 concentration of the appropriate receptor-specific ligand) divided by the mean of wells H3 and H6 (each with cells alone) yielded the baseline response (i.e., fold induction of luciferase activity) to EC50 concentration of the appropriate receptor-specific ligand.
After 16 h stimulation the supernatant was removed and the cells treated with lysis buffer and stored at −80° C. before measuring.
For each screen result a graphical documentation was performed.
The baseline result (measured with addition of the EC50 concentration of the receptor-specific ligand) for each cell culture plate was measured as described above. Antagonistic effects were measured by down regulation compared to the baseline. Antagonists were scored as follows: • 13: compounds for which there was clear down regulation at 0.5 μg/ml, 5 μg/ml, and 50 μg/ml; • 12: compounds for which there was clear down regulation at 5 μg/ml and 50 μg/ml; • 11: compounds for which there was clear down regulation only at 50 μg/ml; • —: compounds for which there was no clear down regulation even at 50 μg/ml. Agonists
Results were expressed as fold induction over baseline luciferase activity measured in the absence of R848. […] Additional screening was performed in like manner using additional small molecules selected from another library or specifically prepared for this purpose. Scoring is reported as above but as applied to TLR7.

Question: `CCOC(=O)c1cc([N+](=O)[O-])cc2c1-c1ccc([N+](=O)[O-])cc1C2=C(C#N)C#N` [compound 1039] was tested. Which “hTLR7 (inhibitory effect, antagonist score)” value did it give?
Answer: 11 (compounds for which there was clear down regulation only at 50 μg/ml)

Question: Which “hTLR7 (inhibitory effect, antagonist score)” value does the source give for `CN1CCN(CCCN2c3ccccc3Sc3ccc(S(=O)(=O)N(C)C)cc32)CC1.CS(=O)(=O)O.CS(=O)(=O)O` [compound 149, Thioproperasinedimesylate] here?
Answer: — (compounds for which there was no clear down regulation even at 50 μg/ml)

Question: For `CCN(CC)CCCN(CC(=O)C1c2ccc(Cl)cc2NC(=O)c2ccccc21)C(=O)c1ccccc1` (centres unmarked) [compound 1013], which “hTLR7 (inhibitory effect, antagonist score)” value is on record?
Answer: — (compounds for which there was no clear down regulation even at 50 μg/ml)

Question: For `O=C(O)c1ccc(C2(c3ccc(C(=O)O)cc3)OC(=O)c3ccccc32)cc1` [compound 970], which “hTLR7 (inhibitory effect, antagonist score)” value is on record?
Answer: — (compounds for which there was no clear down regulation even at 50 μg/ml)

Question: With `CN1CCC(=C2c3ccccc3Sc3ccccc32)CC1.O=C(O)/C=C\C(=O)O` [compound 294, Pimethixene maleate] as the compound, how does the “hTLR7 (inhibitory effect, antagonist score)” value read?
Answer: 11 (compounds for which there was clear down regulation only at 50 μg/ml)

Question: How did the “hTLR7 (inhibitory effect, antagonist score)” value turn out when `Cc1nccc2c1[nH]c1ccccc12` [compound 620, Harmane hydrochloride] was run?
Answer: — (compounds for which there was no clear down regulation even at 50 μg/ml)

Question: For `CC(=O)c1ccc2c(c1)N(CCCN(C)C)c1ccccc1S2.O=C(O)/C=C\C(=O)O` [compound 576, Acetopromazinemaleate salt], which “hTLR7 (inhibitory effect, antagonist score)” value is on record?
Answer: — (compounds for which there was no clear down regulation even at 50 μg/ml)

Question: How did the “hTLR7 (inhibitory effect, antagonist score)” value turn out when `OC(c1ccccc1)(c1ccccc1)C1CCNCC1` [compound 93, Azacyclonol] was run?
Answer: — (compounds for which there was no clear down regulation even at 50 μg/ml)

Question: For `O=C(O)c1cccc2c1-c1ccccc1/C2=N/Nc1ccc([N+](=O)[O-])cc1[N+](=O)[O-]` [compound 944], which “hTLR7 (inhibitory effect, antagonist score)” value is on record?
Answer: 11 (compounds for which there was clear down regulation only at 50 μg/ml)

Question: With `CN1CCC(OC(c2ccccc2)c2ccccc2)CC1.Cl` [compound 707, Diphenylpyralinehydrochloride] as the compound, how does the “hTLR7 (inhibitory effect, antagonist score)” value read?
Answer: 11 (compounds for which there was clear down regulation only at 50 μg/ml)

Question: “Trifluoperazinedihydrochloride [compound 313]” was tested. Which “hTLR7 (inhibitory effect, antagonist score)” value did it give?
Answer: 11 (compounds for which there was clear down regulation only at 50 μg/ml)

Question: `Clc1ccccc1C(c1ccccc1)(c1ccccc1)n1ccnc1` [compound 267, Clotrimazole] was tested. Which “hTLR7 (inhibitory effect, antagonist score)” value did it give?
Answer: 12 (compounds for which there was clear down regulation at 5 μg/ml and 50 μg/ml)

Question: Which “hTLR7 (inhibitory effect, antagonist score)” value does the source give for `CC(NCCC(c1ccccc1)c1ccccc1)c1ccccc1.Cl` (centres unmarked) [compound 270, Fendiline hydrochloride] here?
Answer: 11 (compounds for which there was clear down regulation only at 50 μg/ml)

Question: For `OCc1cc2c(cn1)[nH]c1ccccc12` [compound 878, 3-hydroxymethyl-beta-carboline], which “hTLR7 (inhibitory effect, antagonist score)” value is on record?
Answer: — (compounds for which there was no clear down regulation even at 50 μg/ml)

Question: `O=C(O)c1cccc2c1/C(=N/O)c1ccccc1-2` [compound 918] was tested. Which “hTLR7 (inhibitory effect, antagonist score)” value did it give?
Answer: 11 (compounds for which there was clear down regulation only at 50 μg/ml)

Question: `Cc1cccc(C2(c3cccc(C)c3)OC(=O)c3ccccc32)c1` [compound 1308] was tested. Which “hTLR7 (inhibitory effect, antagonist score)” value did it give?
Answer: 12 (compounds for which there was clear down regulation at 5 μg/ml and 50 μg/ml)

Question: For `Cc1cccc(C)c1NC(=O)CN1CCN(CCCC(c2ccc(F)cc2)c2ccc(F)cc2)CC1` [compound 381, Lidoflazine], which “hTLR7 (inhibitory effect, antagonist score)” value is on record?
Answer: 11 (compounds for which there was clear down regulation only at 50 μg/ml)
